We go through 9 molecules from PubChem BioAssay (NCI).

Molecules are shown by their SMILES.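 Cells were grown in 96-well plates and exposed to each compound for 48 hours at five concentrations; endpoints were interpolated linearly between bracketing concentrations, or set to the highest concentration if not reached. Here, GI50 denotes the concentration required for 50% inhibition of growth. TGI: total growth inhibition.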 Bounds are passed on as bounds.

Some test systems named below: ACHN renal; CCRF-CEM leukemia; K-562 leukemia; SF-268 CNS; SK-MEL-5 melanoma; SNB-75 CNS; SW-620 colon; U251 CNS.
Common to all, as to test: growth of human tumour cells (NCI), 48 h

Consider `OCC1OC(n2cnc3c(NCc4ccccc4O)ncnc32)C(O)C1O` (stereo not drawn), for which the GI50 in the assay with ACHN renal is 0.327 µM; in the assay on CCRF-CEM leukemia, 0.274 µM; with K-562 leukemia, 0.634 µM; with SF-268 CNS, 0.616 µM; in the assay on SK-MEL-5 melanoma, 1.84 µM; with SNB-75 CNS it was 1.74 µM. The GI50 in the assay with SW-620 colon is 0.291 µM; in the assay with U251 CNS, 1.16 µM. In addition, the TGI was above 44.4 µM with ACHN renal; 33.6 µM with CCRF-CEM leukemia; above 100 µM in the assay with K-562 leukemia; above 100 µM in the assay with SF-268 CNS; 15.3 µM in the assay with SK-MEL-5 melanoma; 18.3 µM in the assay with SNB-75 CNS. Also, the TGI with SW-620 colon was above 33.9 µM; in the assay with U251 CNS, above 100 µM.

On to `Cc1ccc(C2C3Cc4ccccc4C3=NN2c2ccc(S(=O)(=O)NC(=O)Nc3ccccc3)cc2)cc1` (stereo not drawn), for which the GI50 with ACHN renal was 14.1 µM; in the assay on CCRF-CEM leukemia, 17.8 µM; in the assay with K-562 leukemia it was 11.5 µM; in the assay on SF-268 CNS, 17.5 µM; in the assay on SK-MEL-5 melanoma, 13.1 µM; in the assay on SNB-75 CNS it was 17.9 µM. Also, the figures for the GI50 with SW-620 colon and with U251 CNS were 13.1 µM and 14.3 µM, respectively. The TGI in the assay with ACHN renal came out at 27.5 µM; in the assay on CCRF-CEM leukemia, 46.6 µM; in the assay on K-562 leukemia, 26.8 µM; in the assay with SF-268 CNS it was 55 µM; with SK-MEL-5 melanoma, 25.7 µM; in the assay with SNB-75 CNS it was 47.8 µM. Also, the TGI in the assay on SW-620 colon is 26 µM; in the assay with U251 CNS, 27.3 µM.

Consider `Nc1no[n+]([O-])c1-c1nnc2c(n1)-c1ccccc1C2=O`, for which the GI50 was 1.56 µM in the assay with ACHN renal; 3.22 µM in the assay with CCRF-CEM leukemia; 1.26 µM in the assay with K-562 leukemia; 4.4 µM in the assay with SF-268 CNS; 1.66 µM with SK-MEL-5 melanoma; 17.4 µM in the assay with SNB-75 CNS. Also, the GI50 was 1.83 µM in the assay with SW-620 colon and 3.76 µM in the assay with U251 CNS. The TGI in the assay on ACHN renal was determined as 3.1 µM; in the assay on CCRF-CEM leukemia it was 9.37 µM; in the assay with K-562 leukemia, 4.54 µM; with SF-268 CNS, 17.3 µM; in the assay on SK-MEL-5 melanoma, 3.13 µM; with SNB-75 CNS it was 34.5 µM. The TGI with SW-620 colon was determined as 3.65 µM; in the assay with U251 CNS, 13.7 µM.

In the case of `CCC(=C(c1ccc(OCCN2CCCC2)cc1)c1ccc(OCCN2CCCC2)cc1)c1ccc(Cl)cc1`, the GI50 with ACHN renal is 0.585 µM; in the assay on CCRF-CEM leukemia, 0.601 µM; in the assay on K-562 leukemia it was 0.226 µM; in the assay with SF-268 CNS, 0.612 µM; in the assay on SK-MEL-5 melanoma, 0.6 µM; in the assay with SNB-75 CNS, 0.921 µM. The GI50 in the assay with SW-620 colon is 0.554 µM; with U251 CNS, 0.576 µM. The TGI was 1.06 µM in the assay with ACHN renal; 1.58 µM in the assay with CCRF-CEM leukemia; 0.751 µM with K-562 leukemia; 1.25 µM in the assay with SF-268 CNS; 1.07 µM in the assay with SK-MEL-5 melanoma; 2.61 µM with SNB-75 CNS. In addition, the TGI with SW-620 colon was found to be 1.09 µM; in the assay on U251 CNS, 1.14 µM.

Consider `N/C(=N/S(=O)(=O)c1cc(C(=O)Nc2ccc(F)cc2)c(Cl)cc1SCc1ccccc1)Nc1ccccc1O`, for which the GI50 was 18.9 µM with ACHN renal; 1.81 µM in the assay on CCRF-CEM leukemia; 1.33 µM in the assay with K-562 leukemia; 2.12 µM in the assay with SF-268 CNS; 1.85 µM with SK-MEL-5 melanoma; 1.96 µM with SNB-75 CNS. Moreover, the GI50 in the assay with SW-620 colon is 1.88 µM; in the assay on U251 CNS, 1.78 µM. Also, the TGI with ACHN renal was above 100 µM; in the assay with CCRF-CEM leukemia, 3.79 µM; in the assay with K-562 leukemia, 3.64 µM; in the assay with SF-268 CNS it was 5.69 µM; in the assay on SK-MEL-5 melanoma, 4.57 µM; in the assay on SNB-75 CNS, 3.84 µM. Further, the TGI stood at 3.54 µM with SW-620 colon and 3.22 µM with U251 CNS.

As for `C1=C\CCCCN2CC[C@H]3[C@H](CCCC/C=C\CCCN4C[C@@H](CCCCC/1)C[C@@H]3C4)C2`, the GI50 with ACHN renal was 2.8 µM; in the assay on CCRF-CEM leukemia it was 3.64 µM; in the assay with K-562 leukemia it was 2.37 µM; with SF-268 CNS, 13.6 µM; in the assay on SK-MEL-5 melanoma, 4.75 µM; in the assay on SNB-75 CNS it was 3.99 µM. The results for the GI50 with SW-620 colon and in the assay with U251 CNS were 6.96 µM and 4.25 µM, respectively. In addition, the TGI in the assay on ACHN renal was 10.5 µM; in the assay with CCRF-CEM leukemia, above 22.6 µM; in the assay with SF-268 CNS, 26.8 µM; with SK-MEL-5 melanoma it was 16.7 µM; in the assay on SNB-75 CNS it was 18.9 µM; in the assay with SW-620 colon, 19.4 µM. The TGI in the assay with U251 CNS is 16.5 µM.

As for `CCOC(=O)c1cc2c(n1Cc1cc(OC)cc(OC)c1)-c1oncc1CC2`, the GI50 was 2.22 µM in the assay on ACHN renal; 0.215 µM in the assay with CCRF-CEM leukemia; 0.0518 µM in the assay with K-562 leukemia; 3.18 µM with SF-268 CNS; 0.0827 µM with SK-MEL-5 melanoma; 0.111 µM in the assay on SNB-75 CNS. For the same molecule, the GI50 with SW-620 colon was 0.0859 µM; in the assay on U251 CNS it was 0.262 µM. Further, the TGI in the assay with ACHN renal was above 100 µM; in the assay on CCRF-CEM leukemia, above 100 µM; in the assay with K-562 leukemia, above 100 µM; with SF-268 CNS it was above 100 µM; in the assay on SK-MEL-5 melanoma, 20.3 µM; with SNB-75 CNS it was above 100 µM. In addition, the TGI in the assay on SW-620 colon and in the assay with U251 CNS was above 100 µM each time.

Consider `CC(=O)c1ccc(Oc2c3ccccc3nc3occc23)cc1`, for which the GI50 with ACHN renal was 3.57 µM; with CCRF-CEM leukemia, 4.8 µM; in the assay with K-562 leukemia, 2.93 µM; in the assay on SF-268 CNS, 7.02 µM; in the assay on SK-MEL-5 melanoma it was 8.75 µM; with SNB-75 CNS, 21.1 µM. For the same molecule, the GI50 is 4.87 µM in the assay with SW-620 colon and 4.21 µM in the assay with U251 CNS. Besides, the TGI with ACHN renal, in the assay on CCRF-CEM leukemia, with K-562 leukemia, in the assay with SF-268 CNS, in the assay on SK-MEL-5 melanoma and in the assay with SNB-75 CNS was above 100 µM in each case. The TGI in the assay on SW-620 colon and in the assay with U251 CNS was above 100 µM in each case.

On to `CCCCC[C@H]1C/C=C2/C(=O)C(Cl)=C[C@@H]2C/C=C\CCCC(=O)O1`, for which the GI50 with ACHN renal was 0.361 µM; in the assay with CCRF-CEM leukemia, 0.113 µM; in the assay with K-562 leukemia, 0.116 µM; in the assay on SF-268 CNS it was 0.803 µM; in the assay on SK-MEL-5 melanoma, 0.437 µM; with SNB-75 CNS, 1.76 µM. In addition, the GI50 with SW-620 colon was 0.181 µM; with U251 CNS, 0.33 µM. For the same molecule, the TGI came to 0.704 µM with ACHN renal; 2.93 µM with CCRF-CEM leukemia; 3.6 µM with K-562 leukemia; 3.72 µM with SF-268 CNS; 0.812 µM with SK-MEL-5 melanoma; 6.09 µM in the assay on SNB-75 CNS. Further, the figures for the TGI in the assay on SW-620 colon and with U251 CNS were 1.3 µM and 0.737 µM, respectively.
